Assay results published in a melting point compilation (Tetko et al.; mined from patent text by program, amines drawn as free bases though some values may be those of a salt).

Structure (SMILES)	melting point
Cn1nc(-n2ncc(C(N)=S)c2Br)c(Cl)c1OC(F)F	175 °C
CCOCCC(=Nc1ccc(Cl)cc1C(F)(F)F)n1ccnc1	61 to 62 °C
CCc1nc(C)cn1CC1CC2c3cccc4[nH]cc(c34)CC2N(C)C1 (stereo not drawn)	172 to 174 °C
O=S1(=O)NC(C2=CCCCC2)Nc2cc(Cl)ccc21 (stereo not drawn)	252 to 254 °C
CCCc1c(CSc2nnc(SCCCS(=O)(=O)CC(=O)O)s2)ccc(C(C)=O)c1O	122 to 125 °C
COc1ccc2c(c1)C(=O)CCC21CCC(=O)NC1=O (stereo not drawn)	214 to 215 °C
C#CCS(=O)(=O)c1cc([N+](=O)[O-])ccc1Cl	238 to 241 °C
CCOC(=O)C1=C[C@H](NC(=O)OC(C)(C)C)[C@@H](NC(C)=O)[C@@H]2OC(C)(C)O[C@H]12	174 to 175 °C
O=c1[nH]c2cccc(C(F)(F)F)c2c(=O)o1	232 to 233 °C
CC1Cc2cc3c(cc2C(c2ccc([N+](=O)[O-])cc2)=NN1C(N)=S)OCO3 (stereo not drawn)	213 to 215 °C
CCCC1Oc2cc(OC)c(Cl)c(Cl)c2C1=O (stereo not drawn)	90 to 92 °C
CCN(CC)C(=O)Cc1cc(C(C)C)c(O)cc1C	138 to 139 °C
COc1ccc(N2CCN(c3nc(NC(C)(C)C(C)(C)C)nc(NC(C)(C)C(C)(C)C)n3)CC2)cc1	155 to 157 °C
COc1cc2cc(C#N)sc2cc1OC	125 °C
COc1cc(Nc2c(C#N)cnc3cc(-c4ccc(CN5CCN(CCO)CC5)o4)ccc23)c(Cl)cc1Cl	176 to 181 °C

The remaining lines, values ahead:

melting point	Structure (SMILES)
110 to 116 °C	CC(C)(C)OC(=O)/C=C1/CCCCC1n1nc(-c2c(-c3ccccc3)nn3ccccc23)ccc1=O (stereo not drawn)
149 to 152 °C	CC(=O)OC1=C([C@H]2CC[C@H](c3ccc(Cl)cc3)CC2)C(=O)c2ccccc2C1=O
155 to 156 °C	Cc1ccc(Nc2c(F)cccc2C(F)(F)F)c(CC(=O)O)c1
242 °C	CC(NC(=O)c1cc2ccccc2[nH]1)C(=O)N(c1ccccc1)c1ccccc1 (racemic)
234 to 236 °C	Nc1nc(Cl)cc(Oc2ccc3c(C(=O)Nc4cccc(C(F)(F)F)c4)cccc3c2)n1
147 to 148 °C	COCCOc1ccc(/C=C/C(=O)NS(=O)(=O)c2cccc(C)c2)c(Oc2ncc(C(F)(F)F)cc2Cl)c1
105 °C	Cc1cc(-n2cncn2)c2cccc(OCc3c(Cl)ccc(S(=O)(=O)N4CCC[C@H]4C(=O)NCCCN(C)C)c3Cl)c2n1
160 to 164 °C	O=C1CCC(=O)C(c2ccccc2)N1 (stereo not drawn)
218 to 228 °C	COc1cc(F)ccc1-c1cncc(OC2SCC(O)C(O)C2O)c1 (stereo not drawn)
192 to 196 °C	CC1=Nc2ccc(C)cc2C(O)(c2ccccc2)N1N (stereo not drawn)
218 to 220 °C	Cc1noc(C(=O)NCCc2ccc(S(N)(=O)=O)cc2)n1
238 °C	CNC(=O)c1cccc(C2C(C(=O)c3ccc(OC)cc3)=C(O)C(=O)N2c2nnc(C)s2)c1 (stereo not drawn)
189 °C	CC1=C(c2ccccc2)C(c2ccccc2OCc2ccccc2)C([N+](=O)[O-])=C(C)N1 (stereo not drawn)
204 to 206 °C	Cc1sc(NS(=O)(=O)c2ccc(-c3ccccc3)cc2)nc1CC(=O)N1CCOCC1
> 300 °C	O=S(=O)(O)c1cccc2c1ccc1nc(O)c(O)nc12
226 to 228 °C	Cc1cc(NC(=O)C2=C(O)c3ccccc3S(=O)(=O)CC2)no1
125 to 128 °C	CNC(=O)c1c(-c2ccccc2)noc1CC(=O)c1ccccc1
140 to 141 °C	Cc1cccc(Cn2cccc2C(=O)CC(=O)C(=O)O)c1
254 to 256 °C	Cc1cc(C)c2[nH]c(C(=O)O)cc2c1
112 to 113 °C	O=C(CCc1cnoc1-c1ccccc1)Nc1ccc2ccccc2n1
186 to 188 °C	CC(C)[C@]1(CCc2ccccc2)CC(O)=C(Sc2cc3sc(N)nc3cc2C(C)(C)C)C(=O)O1
92.5 °C	CCCCOc1ccc(S(=O)(=O)C2(C(=O)O)CCN(Cc3cccc(Oc4ccccc4)c3)CC2)cc1
174 to 175 °C	CN1C(=O)N(CC(COc2ccc(-c3ccc(S(C)(=O)=O)cc3)cc2)N(O)C=O)C(=O)C1(C)C (stereo not drawn)
